Reference: patent publication US12310942B2, “Pharmaceutical compositions comprising statins and hyaluronic acid derivatives” (FIDIA FARMACEUTICI S.p.A., priority 2019, dated 2025)
Where two headings read alike, the source gives them in different places.

Tested on: bovine cartilage biopsies
Conditions: IL-1β and OSM 10 ng/mL, 21 days, FIG. 3
Description: For this purpose, cartilage biopsies were collected from the patello-femoral sulcus and femoral condyles from the femur of 1 adult bovine (15-18 months). […] The biopsies (Ø=3 mm) were taken with a steel punch.
Each biopsy was transferred to a well of a 48-well MW and washed twice with 500 μL PBS 1× (Euroclone, cat. no. ECB4004L, Italy). […] The biopsies were incubated for 24 h at 37° C. 5% CO2. After incubation, the biopsies were washed with 500 μL PBS 1×, and 500 μL DMEM/F-12+2% FBS containing the dilution of the compound to be tested were added to all the wells. Each statin was used at the concentrations of 10 μM and 2.5 μM. 4 biopsies were used for each condition. After 7, 14 and 21 days, the biopsy culture medium was aspirated and replaced with 500 μL of fresh culture medium containing the appropriate concentrations of pro-inflammatory cytokines (IL-1β and OSM, 10 ng/mL) and the active ingredients to be tested. The biopsy culture medium was harvested after 21 days and used to determine the soluble collagen content. The Sircol assay was conducted according to the manufacturer's instructions, and quantitation was effected by spectrophotometric reading at 555 nm.

CC(C)c1c(C(=O)Nc2ccccc2)c(-c2ccccc2)c(-c2ccc(F)cc2)n1CC[C@@H](O)C[C@@H](O)CC(=O)O [atorvastatin]
collagen release induced by IL-1β and OSM (statin 2.5 μM): significant reduction in collagen release
collagen release induced by IL-1β and OSM (statin 10 μM): significant reduction in collagen release

CC[C@H](C)C(=O)O[C@H]1C[C@@H](C)C=C2C=C[C@H](C)[C@H](CC[C@@H]3C[C@@H](O)CC(=O)O3)[C@H]21 [lovastatin]
collagen release induced by IL-1β and OSM (statin 2.5 μM): values comparable to those of the untreated control
collagen release induced by IL-1β and OSM (statin 10 μM): significant reduction in collagen release
